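These data come from cells grown in 96-well plates and exposed to compound for 48 hours at five concentrations. GI50 = concentration required for 50% inhibition of growth. TGI is the concentration that stops growth completely.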
Experiments:
Test in all cases: NCI-60 cell line screen, 48 h
786-0 renal = test system: 786-0 renal
BT-549 breast = test system: BT-549 breast
HCT-15 colon = test system: HCT-15 colon
KM12 colon = test system: KM12 colon
MALME-3M melanoma = test system: MALME-3M melanoma
MCF7 breast = test system: MCF7 breast
NCI-H23 lung = test system: NCI-H23 lung
SF-295 CNS = test system: SF-295 CNS
UACC-62 melanoma = test system: UACC-62 melanoma
A498 renal = test system: A498 renal

| SMILES | TGI (786-0 renal) | TGI (BT-549 breast) | TGI (HCT-15 colon) | TGI (KM12 colon) | TGI (MALME-3M melanoma) | TGI (MCF7 breast) | TGI (NCI-H23 lung) | TGI (SF-295 CNS) | TGI (UACC-62 melanoma) | TGI (A498 renal) | GI50 (A498 renal) | GI50 (BT-549 breast) | GI50 (HCT-15 colon) | GI50 (KM12 colon) | GI50 (MALME-3M melanoma) | GI50 (NCI-H23 lung) | GI50 (UACC-62 melanoma) |
| --- | --- | --- | --- | --- | --- | --- | --- | --- | --- | --- | --- | --- | --- | --- | --- | --- | --- |
| CC1=CC(O)CC(C)(C)C1/C=C/C(C)=C/C=C/C(C)=C/C=C/C=C(C)/C=C/C=C(C)/C=C/C1=C(C)CC(O)CC1(C)C (stereo not given) | 36.7 µM | 33.1 µM | 34.4 µM | > 100 µM | 29 µM | 77.7 µM | 56.9 µM | 58.4 µM | 29.8 µM |  |  |  |  |  |  |  |  |
| Fc1cccc(F)c1C1SCc2nc3cc(Cl)ccc3n21 (stereo not given) | > 71.1 µM | > 45.6 µM | > 100 µM | 72.9 µM | > 31.6 µM | 34 µM | > 100 µM | > 70.2 µM | > 100 µM |  |  |  |  |  |  |  |  |
| Cc1ccc2nc(Nc3ccccc3C)c(Nc3ccccc3C)nc2c1 | > 100 µM |  | 58.7 µM | 45.8 µM | 48.8 µM | > 100 µM | 45.6 µM | 52.3 µM | > 90.7 µM | 69.6 µM |  |  |  |  |  |  |  |
| CC(=O)N=S(NC(=O)c1ccc(C)cc1)C(Cl)(Cl)Cl (stereo not given) | 33.1 µM |  | > 100 µM | > 100 µM | 96 µM | > 100 µM | 68.2 µM | > 100 µM | > 100 µM |  |  |  |  |  |  |  |  |
| CCc1nc2c([nH]1)C(=O)c1ccccc1C2=O | > 100 µM |  | > 100 µM | > 100 µM | 49.5 µM |  | > 100 µM | > 100 µM | > 100 µM | > 100 µM |  |  |  |  |  |  |  |
| CC1OC2OC3C(OCC(O)C3O)OC(=O)[C@]34CCC(C)(C)CC3C3=CCC5[C@@]6(C)C[C@H](O)[C@H](OC7OC(CO)C(O)C(O)C7OC7OC(COC(=O)CC(C)(O)CC(=O)OC1C(OC1OC(CO)C(O)C(O)C1O)C2O)C(O)C(O)C7O)[C@@](C)(CO)C6CC[C@@]5(C)[C@]3(C)CC4 (stereo not given in full) | 11.9 µM | 19.3 µM | 15.7 µM | 8.24 µM | 6.96 µM |  | 3.23 µM | 3.72 µM | 3.38 µM |  |  |  |  |  |  |  |  |
| Cc1cccc2c(N)c3cccc(C(=O)NCC[N+](C)(C)[O-])c3nc12 | > 100 µM | 41.8 µM | > 100 µM | > 100 µM | 52.5 µM | > 100 µM | 16.7 µM | 45.4 µM | 26.8 µM |  |  |  |  |  |  |  |  |
| O/N=C/[C@H]1COC2(CCCCC2)O1 | > 100 µM |  | > 100 µM | > 100 µM | > 100 µM | > 100 µM | > 100 µM | > 100 µM | > 100 µM | > 100 µM |  |  |  |  |  |  |  |
| CC1CCc2sc3[nH]c(=S)n(C)c(=O)c3c2C1 (stereo not given) | > 100 µM | > 100 µM | > 100 µM | > 100 µM | > 100 µM | > 100 µM | > 100 µM | > 100 µM | > 100 µM |  |  |  |  |  |  |  |  |
| CC1=NN(c2cccc(Cl)c2)C2(C1=Cc1ccc(N(C)C)cc1)C(Cl)C(=O)N2c1nc2ccccc2s1 (stereo not given) | > 100 µM |  | > 100 µM | 38.5 µM |  | > 100 µM | > 100 µM | > 100 µM |  | > 100 µM |  |  |  |  |  |  |  |
| CSc1ncnc2c1cnn2Cc1cn(COCC(O)CO)nn1 (stereo not given) | > 100 µM | > 100 µM | > 100 µM | > 100 µM |  | > 100 µM | > 100 µM | > 100 µM | > 100 µM | > 100 µM |  |  |  |  |  |  |  |
| CC(=O)OC1COC(N2c3ccccc3[C@@H]3CCc4c([nH]c5ccccc45)[C@@H]32)C(OC(C)=O)C1OC(C)=O (mixture of isomers) |  | > 100 µM | > 100 µM | > 100 µM | > 100 µM |  | > 100 µM | > 100 µM | > 100 µM | 62 µM |  |  |  |  |  |  |  |
| O=C(/C=C/CC(O)(c1ccccc1)c1ccccc1)Nc1ccccc1Cl |  |  | > 100 µM | > 100 µM | > 100 µM |  | > 100 µM | > 100 µM | > 100 µM | > 100 µM |  |  |  |  |  |  |  |
| CC(C)NC(=O)OCc1c(COC(=O)NC(C)C)n(C)c2c1ccc1cc(Cl)c(Cl)cc12 | 20.5 µM | 30.7 µM | 28.7 µM |  | 22.7 µM | 14.9 µM | 31.1 µM | 30.8 µM | 28 µM | 4.85 µM |  |  |  |  |  |  |  |
| Oc1ccc(C[C@@H]2CN[C@H](Cc3ccc(O)c(Br)c3)CN2)cc1 | > 100 µM | > 100 µM | > 100 µM | > 100 µM |  | > 100 µM | > 100 µM | > 100 µM | > 100 µM | > 100 µM |  |  |  |  |  |  |  |
| Clc1sc(Cl)c2c1[C@H](Br)C[C@@H]2Cl | 99.1 µM | 40.3 µM | 40.7 µM | > 100 µM | 49.4 µM | 50.8 µM | 43.2 µM | > 100 µM | 69.1 µM |  |  |  |  |  |  |  |  |
| C[C@@H](CCO)OC1OC(COC(=O)C(C)(C)C)C(OC(=O)C(C)(C)C)C(OC(=O)C(C)(C)C)C1OC(=O)C(C)(C)C (stereo not given in full) | > 100 µM | > 100 µM | > 100 µM |  |  | > 100 µM | > 100 µM | 76.7 µM | > 100 µM | > 100 µM |  |  |  |  |  |  |  |

| SMILES | TGI (786-0 renal) | TGI (BT-549 breast) | TGI (HCT-15 colon) | TGI (KM12 colon) | TGI (MALME-3M melanoma) | TGI (MCF7 breast) | TGI (NCI-H23 lung) | TGI (SF-295 CNS) | TGI (UACC-62 melanoma) | TGI (A498 renal) | GI50 (A498 renal) | GI50 (BT-549 breast) | GI50 (HCT-15 colon) | GI50 (KM12 colon) | GI50 (MALME-3M melanoma) | GI50 (NCI-H23 lung) | GI50 (UACC-62 melanoma) |
| --- | --- | --- | --- | --- | --- | --- | --- | --- | --- | --- | --- | --- | --- | --- | --- | --- | --- |
| CCOC(=O)C(NC(=O)CC)(Nc1ccccc1F)C(F)(F)F (stereo not given) |  | > 100 µM | > 100 µM | > 100 µM |  | > 100 µM | > 100 µM | > 100 µM | > 100 µM |  |  |  |  |  |  |  |  |
| COc1ccc(C(=O)/C=C/c2ccc(OCCCCCCCCCCOc3ccc(/C=C/C(=O)c4ccc(OC)c(OC)c4)cc3)cc2)c(OC)c1 | > 100 µM |  | > 100 µM | > 100 µM |  | > 100 µM |  | > 100 µM | > 100 µM |  |  |  |  |  |  |  |  |
| CCOC(=O)c1c(-c2ccc(OC)cc2)c(C#N)c(=S)n(C2OC(CO)C(O)C(O)C2O)c1C (stereo not given) | > 100 µM |  | > 100 µM | > 100 µM | > 100 µM | > 100 µM | > 100 µM | > 100 µM |  | > 100 µM |  |  |  |  |  |  |  |
| O=C1c2cc3c(cc2-c2c1c1cc(F)c(F)cc1c(=O)n2C[C@H](O)CO)OCO3 |  | 2.22 µM | 1.74 µM | > 100 µM | 0.916 µM |  | 0.613 µM |  | 0.0678 µM | 0.254 µM | 0.0834 µM | 0.0727 µM | 0.19 µM | 0.123 µM | 0.196 µM | 0.0611 µM | 0.0153 µM |
| COC(=O)Cc1c2n(c3ccccc13)C(=O)N1c3ccccc3C(CC(=O)OC)C21 (stereo not given) | > 100 µM | 93.9 µM | > 100 µM |  | > 100 µM | > 100 µM | 64.6 µM | 68.2 µM | > 100 µM | > 100 µM |  |  |  |  |  |  |  |
| CN(C)CCN1C(=O)N(CCN(C)C)c2c3cc(O)ccc3nc3c([N+](=O)[O-])ccc1c23 | 19 µM | 40.6 µM | 20.8 µM | 23.3 µM | 29.6 µM |  | 36.6 µM |  | 30.8 µM | 29.6 µM |  |  |  |  |  |  |  |
| Cn1c(=O)c2[nH]c(Nc3cccc(Cl)c3)nc2n(C)c1=O | > 10 µM |  | > 10 µM | > 10 µM | > 10 µM | > 10 µM | > 10 µM | > 10 µM | > 10 µM |  |  |  |  |  |  |  |  |
| O=c1ccn([C@@H]2C=C(CO)[C@@H](O)[C@H]2O)c(=O)[nH]1 |  |  | > 625 µM | > 625 µM | > 625 µM | > 625 µM | > 625 µM | > 625 µM | > 625 µM |  |  |  |  |  |  |  |  |
| CO[C@H](C)[C@](O)(C(=O)OCC1=CCN2CC[C@@H](O)[C@H]12)C(C)C | > 100 µM | > 100 µM | > 100 µM | > 100 µM |  | > 100 µM | > 100 µM | > 100 µM | > 100 µM | > 100 µM |  |  |  |  |  |  |  |
| O=C1C=CC(=O)c2c(O)c(N3CCN(c4ncccn4)CC3)c(Cl)c(O)c21 | 3.1 µM | 3.86 µM |  | 15.2 µM | 3.63 µM | 3.32 µM | 4.59 µM | 25.5 µM | 6.02 µM | 6.49 µM |  |  |  |  |  |  |  |
| CC12CCC(=O)[C@@]1(C)CCCC2=O (stereo not given in full) | > 100 µM | > 100 µM | > 100 µM | > 100 µM | > 100 µM | > 100 µM | > 100 µM | > 100 µM | > 100 µM |  |  |  |  |  |  |  |  |
| CCOC(=O)OC1(c2ccccc2)CCN(C)CC1 | > 100 µM |  | > 100 µM | > 100 µM | > 100 µM | > 100 µM | > 100 µM | > 100 µM | > 100 µM | > 100 µM |  |  |  |  |  |  |  |
| CN(C)C(=O)/N=C1\SC(=Nc2ccccc2)C(=Nc2ccccc2)N1c1ccc([N+](=O)[O-])cc1 |  | > 100 µM | > 100 µM | > 100 µM | > 100 µM | > 100 µM | > 100 µM | > 100 µM | > 100 µM | > 100 µM |  |  |  |  |  |  |  |
| CC1=[N+]([O-])C2(CCCC2)N(O)C1(C)C | > 100 µM |  | > 100 µM | > 100 µM | > 100 µM | > 100 µM | > 100 µM | > 100 µM | > 100 µM |  |  |  |  |  |  |  |  |
| O=C1CN(c2ccccc2)C(=O)C1C(=O)Nc1ccc(Cl)c(Cl)c1 (stereo not given) |  |  | 13.1 µM |  |  |  | 20.2 µM | 14 µM | 12.4 µM |  |  |  |  |  |  |  |  |
| COc1cccc(Nc2nc3c([nH]2)c(=O)n(C)c(=O)n3C)c1 | > 10 µM |  | > 10 µM | > 10 µM | > 10 µM | > 10 µM | > 10 µM | > 10 µM | > 10 µM |  |  |  |  |  |  |  |  |
| CN1C2CCC1C(CO)C(=O)C2 (stereo not given) |  | > 100 µM | 75.3 µM | > 100 µM | 66.5 µM | 56.5 µM | > 100 µM | > 100 µM | > 100 µM | > 100 µM |  |  |  |  |  |  |  |
